From US20020049162A1, “Methods for inhibiting smooth muscle cell proliferation” (priority 2000, published 2002)
“Also recorded” adds a separate entry of the source. Square brackets hold non-standard residues; d marks the D form. Ends that are not written are not given here. Phe(4-NH2) = Nc1ccc(C[C@H](N)C(=O)O)cc1

Experiments:
[1] = test system: Human coronary artery smooth muscle cells; assay: Inhibition of human smooth muscle cell proliferation (cell counts, growth rate vs wells without peptide); assay type: cell-based; settings: for % Control Proliferation Day 1 vs Day 4 / % Control Proliferation Day 1 vs Day 7: percentage of the control growth rate, values below 100 = inhibition, peptides 0.1-10 μg/ml, concentration not given; for Effect on proliferation of human smooth muscle cells (in words): compared with wells that did not contain peptide
smooth muscle cell = settings: Strawn et al., Hypertension 33:207-211 (1999); cited from earlier work
[2] = test system: smooth muscle cell growth after vascular injury; settings: Strawn et al., Hypertension 33:207-211 (1999); cited from earlier work
AT2 receptor = settings: cited from earlier work
[3] = Unspecified earlier test of effectiveness of AII fragments; settings: test not described

Row | Substance | % Control Proliferation Day 1 vs Day 4 [1] [%] | % Control Proliferation Day 1 vs Day 7 [1] [%] | Effect on proliferation of human smooth muscle cells (in words) [1] | other results
1 | A(1-7): AII residues 1-7, SEQ ID NO:4 (DRVYIHP) [reference compound] | 73.3 | 63.3 | – | Smooth muscle cell proliferation (in words) (smooth muscle cell): inhibit smooth muscle cell proliferation; Smooth muscle cell growth after vascular injury (in words) [2]: reduce smooth muscle cell growth after vascular injury
2 | Arg—Val—Tyr—Ile—His—Pro (RVYIHP) [A(2-7)] | 82.4 | 64.8 | inhibited smooth muscle cell proliferation | –
3 | Asp—Arg—Val—Tyr—Ile (DRVYI) [A(1-5)] | 85.9 | 83.1 | – | –
4 | Asp—Arg—Val—Tyr—Ile—His—Pro—Phe (DRVYIHPF) [AII, reference compound] | 121.4 | 154.5 | increased the proliferation | Affinity for AT2 relative to AT1 (AT2 receptor; higher affinity for AT2 than AT1, Speth and Kim 1990): 100 times
5 | Asp—Arg—Val—Tyr—Ile—Xaa—Pro—Phe (DRVYI[Phe(4-NH2)]PF) [p-aminophenylalanine6-AII] | – | – | – | Binding characteristics (in words) (AT2 receptor; experimental models of Catalioto 1994, Bryson 1992): comparable to AT2 antagonists
6 | DRKYIHP [Peptide 5GD] | 86.6 | 80.1 | inhibited smooth muscle cell proliferation | –
7 | DRP(OH)AIHP [Peptide 8GD] | 72.6 | 66.4 | inhibited smooth muscle cell proliferation | –
8 | DRVAIHP [Peptide 1GD] | 55.4 | 54.2 | inhibited smooth muscle cell proliferation | –
9 | DRVYIH [A(1-6)] | 76.5 | 61.1 | inhibited smooth muscle cell proliferation | –
10 | His—Pro—Phe (HPF) [AII(6-8)] | – | – | – | Effectiveness (in words) [3]: not to be effective
11 | Ile—His—Pro—Phe (IHPF) [A(5-8)] | 63.1 | 55.0 | inhibited smooth muscle cell proliferation | –
12 | Tyr—Ile—His—Pro—Phe (YIHPF) [AII(4-8)] | – | – | – | Effectiveness (in words) [3]: not to be effective; also recorded: ineffective
13 | Val—Tyr—Ile—His—Pro (VYIHP) [A(3-7)] | 80.5 | 70.0 | inhibited smooth muscle cell proliferation | –
14 | Val—Tyr—Ile—His—Pro—Phe (VYIHPF) [A(3-8)] | 74.7 | 61.7 | inhibited smooth muscle cell proliferation | –
